The target in one test is T1, recombinant human mPGES-1 (Homo sapiens, UniProt O14684).
T1 construct: made in house; host or cells: Rosetta E. coli (microsomal/membrane fraction)
T1 sequence (O14684 1-152): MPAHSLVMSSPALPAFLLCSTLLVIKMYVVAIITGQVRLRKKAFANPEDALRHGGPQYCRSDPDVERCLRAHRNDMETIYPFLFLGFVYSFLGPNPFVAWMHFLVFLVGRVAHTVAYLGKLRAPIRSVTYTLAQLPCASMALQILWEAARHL
Briefly: mPGES-1 inhibition test (microsomes, PGH2 substrate, HTRF detection of PGE2). The test is classed as biochemical. Conditions: inhibition of mPGES-1 at 1 μM (marked in cell). In outline: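 PGE2 formed from PGH2 in one minute by E. coli-expressed microsomal enzyme (pH 7.4, 2.5 mM GSH) was measured by competitive HTRF against a synthetic PGE2 standard curve. Compounds were preincubated 25 min at room temperature.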
For orientation: In TR-FRET formats the signal depends on donor and acceptor labels being close together.
Broadly, the inhibition is the percentage by which the read-out fell short of the control. For the compound `COc1cc2c(cc1C(=O)Nc1ccc(Br)cc1)nc(Nc1cc(C)ccc1C(F)(F)F)n2C` [Example 641, 2-(5-Methyl-2-trifluoromethyl-phenylamino)-N-(4-bromphenyl)-6-methoxy-1-methyl-1H-benzimidazol-5-carboxamide], the inhibition at 1 µM was found to be 97%.

The test is the same for the next values; noted with them: inhibition of mPGES-1 at 10 μM.
Take `Cn1c(Nc2c(Cl)cccc2Cl)nc2cc(C(=O)NCc3c(C(F)(F)F)ccc[n+]3[O-])c(F)cc21` [Example 568, 2-((2-(2,6-Dichlorophenylamino)-6-fluoro-1-methyl-1H-benzimidazole-5-carboxamido)methyl)-3-trifluoromethyl-pyridine 1-oxide]: the inhibition at 10 µM was 60%.
Still for that read-out and setting: under `COc1cc2nc(Nc3c(Cl)cccc3Cl)[nH]c2cc1C(=O)NCc1ccccc1C(F)(F)F` [Example 200] stands 98%; under `CC(=O)NCCn1c(Nc2c(Cl)cccc2Cl)nc2cc(C(=O)Nc3cc(Cl)ccn3)ccc21` [Example 278, 2-(2,6-Dichloro-phenylamino)-1-(2-acetylamino-ethyl)-1H-benzimidazole-5-carboxylic acid (4-chloro-pyridin-2-yl)-amide], 92%.
Same read-out and setting: under `O=C(NCc1ccc(Cl)cc1)c1ccc2[nH]c(Nc3c(Cl)cccc3Cl)nc2c1` [Example 309, 2-(2,6-Dichloro-phenylamino)-1H-benzimidazole-5-carboxylic acid 4-chloro-benzylamide] stands 98%; under `Cc1nc(NC(=O)c2ccc3c(c2)nc(Nc2c(Cl)cccc2Cl)n3C)cc2c1CCCC2` [Example 139, 2-(2,6-Dichloro-phenylamino)-1-methyl-1H-benzimidazole-5-carboxylic acid (1-methyl-5,6,7,8-tetrahydro-isoquinolin-3-yl)-amide], 98%; under `O=C(NC1COc2ccccc2C1)c1cc2[nH]c(Nc3c(Cl)cccc3Cl)nc2cc1F` (stereo not shown) [Example 152, 2-(2,6-Dichloro-phenylamino)-6-fluoro-1H-benzimidazole-5-carboxylic acid chroman-3-ylamide], 95%.
On the same count and under the same terms, under `CC(C)(C)CNC(=O)c1ccc2[nH]c(Nc3c(Cl)cccc3Cl)nc2c1` [Example 140, 2-(2,6-Dichloro-phenylamino)-1H-benzimidazole-5-carboxylic acid (2,2-dimethyl-propyl)-amide] stands 80%; under `CC(C)Oc1cc2[nH]c(Nc3c(Cl)ccc(Cl)c3F)nc2cc1C(=O)NC1CCCCC1` [Example 611, 2-(3,6-Dichloro-2-fluoro-phenylamino)-6-isopropoxy-N-cyclohexyl-1H-benzimidazole-5-carboxamide], 90%.
Take `O=C(Nc1ccc(Br)c(F)c1)c1cc2nc(Nc3c(Cl)cccc3Cl)[nH]c2cc1Cl` [Example 54, 2-(2,6-Dichloro-phenylamino)-6-chloro-1H-benzimidazol-5-carboxylic acid (4-bromo-3-fluoro-phenyl)-amide]: the inhibition at 10 µM was 96%.
The same measure, in the same setting: the figure for `Cn1c(Nc2c(Cl)cc(F)cc2Cl)nc2cc(C(=O)N[C@H]3CC[C@H](C(F)(F)F)CC3)ccc21` [Example 432, 2-(2,6-Dichloro-4-fluorophenylamino)-1-methyl-N-((1R,4R)-4-trifluoromethyl-cyclohexyl)-1H-benzimidazole-5-carboxamide] is 100%; for `Cc1cc(NC(=O)c2ccc3c(c2)nc(Nc2c(Cl)cccc2Cl)n3C)ncc1Cl` [Example 202, 2-(2,6-Dichloro-phenylamino)-1-methyl-1H-benzimidazole-5-carboxylic acid (5-chloro-4-methyl-pyridin-2-yl)-amide] it is 100%.
On to `O=C(Nc1cc(Cl)nc(Cl)c1)c1ccc2[nH]c(Nc3c(Cl)cccc3Cl)nc2c1` [Example 187, 2-(2,6-Dichloro-phenylamino)-1H-benzimidazole-5-carboxylic acid (2,6-dichloro-pyridin-4-yl)-amide], for which the inhibition at 10 µM worked out at 98%.
The same measure, in the same setting: the figure for `COc1cc2[nH]c(Nc3c(Cl)ccc(Cl)c3F)nc2cc1C(=O)NC1CCCCC1` [Example 612, 2-(3,6-Dichloro-2-fluoro-phenylamino)-N-cyclohexyl-6-methoxy-1H-benzimidazole-5-carboxamide] is 99%; for `O=C(NC1CCC(F)(F)CC1)c1ccc2[nH]c(Nc3c(Cl)cccc3Cl)nc2c1` [Example 225, 2-(2,6-Dichloro-phenylamino)-1H-benzimidazole-5-carboxylic acid (4,4-difluoro-cyclohexyl)-amide] it is 80%.
For `O=C(Nc1ccc(Cl)c(F)c1)c1cc2nc(Nc3c(Cl)cccc3Cl)[nH]c2cc1Cl` [Example 55, 2-(2,6-Dichloro-phenylamino)-6-chloro-1H-benzimidazol-5-carboxylic acid (4-chloro-3-fluoro-phenyl)-amide], the inhibition at 10 µM was 93%.
`Cn1c(NC(=O)c2ccc3[nH]c(Nc4c(Cl)cccc4Cl)nc3c2)nc2ccccc21` [Example 81, 2-(2,6-Dichloro-phenylamino)-1H-benzimidazole-5-carboxylic acid (1-methyl-benzimidazol-2-yl)-amide]: the inhibition at 10 µM amounted to 84%.
Same read-out and setting: under `CCOc1cc2[nH]c(Nc3c(Cl)ccc(Cl)c3F)nc2cc1C(=O)Nc1ccc(Br)cc1` [Example 604, 2-(3,6-Dichloro-2-fluoro-phenylamino)-N-(4-bromo-phenyl)-6-ethoxy-1H-benzimidazole-5-carboxamide] stands 100%.
The same measure, in the same setting: the figure for `Cn1c(Nc2c(Cl)ccc(Cl)c2F)nc2cc(C(=O)N[C@H]3CC[C@H](C(F)(F)F)CC3)c(F)cc21` [Example 601, 2-(3,6-Dichloro-2-fluoro-phenylamino)-6-fluoro-N-(trans-4-trifluoromethyl-cyclohex-1-yl)-1-methyl-1H-benzimidazole-5-carboxamide] is 92%.
The same measure, in the same setting: the figure for `CCc1cccc(CC)c1Nc1nc2cc(C(=O)Nc3ccc(Br)cc3)ccc2[nH]1` [Example 114, 2-(2,6-Diethyl-phenylamino)-1H-benzimidazole-5-carboxylic acid (4-bromo-phenyl)-amide] is 80%; for `Cc1cc(NC(=O)c2cc3nc(Nc4c(Cl)cc(F)cc4Cl)[nH]c3cc2OCC(F)(F)F)nc(C(F)(F)F)c1` [compound 576] it is 96%.
Take `Cn1c(Nc2c(F)cccc2C(F)(F)F)nc2cc(C(=O)Nc3ccc(Br)cc3)ccc21` [Example 358, N-(4-Bromophenyl)-2-(2-fluoro-6-trifluoromethyl-phenylamino)-1-methyl-1H-benzimidazole-5-carboxamide]: the inhibition at 10 µM was 100%.
Turning to `CCOc1cc2c(cc1C(=O)NC1CCC(C(F)(F)F)CC1)nc(Nc1c(Cl)ccc(Cl)c1F)n2C` (stereo not drawn) [Example 605, 2-(3,6-Dichloro-2-fluoro-phenylamino)-6-ethoxy-N-(4-trans-trifluoromethyl-cyclohex-1-yl)-1-methyl-1H-benzimidazole-5-carboxamide], the inhibition at 10 µM stood at 93%.
Same read-out and setting: the figure for `CC(C)CCNC(=O)c1cc2nc(Nc3c(Cl)cccc3Cl)n(C)c2cc1F` [Example 428, 2-(2,6-Dichlorophenylamino)-6-fluoro-N-isopentyl-1-methyl-1H-benzimidazole-5-carboxamide] is 100%.
`COCCn1c(Nc2c(Cl)cccc2Cl)nc2cc(C(=O)Nc3cccc(Cl)c3)ccc21` [Example 181, 2-(2,6-Dichloro-phenylamino)-1-(2-methoxy-ethyl)-1H-benzimidazole-5-carboxylic acid (3-chloro-phenyl)-amide]: the inhibition at 10 µM amounted to 100%.

For the origin of these results see US8916599B2, “1H-benz imidazole-5-carboxamides as anti-inflammatory agents” (Orexo AB, priority 2008, dated 2014).
